For one assay, the system named is HBsAg. The assay is described as follows: HBsAg assay (CLIA) in HepG2.2.15 cells. In kind it is cell-based, HBV. The conditions noted are these: Hepatitis B virus, HepG2.2.15, read-out: IC50 (HBsAg assay). The method, then: (§1) HepG2.2.15 cells (Acs et al. Proc Natl Acad Sci USA, 84, (1987), 4641-4), a constitutively HBV-expressing cell line were cultured in DMEM+Glutamax-I medium (Invitrogen, Carlsbad, Calif., USA), supplemented with 10% fetal bovine serum (Invitrogen) and G418 (Invitrogen) at a final concentration of 200 mg/L and maintained in 5% CO2 at 37° C.
HepG2.2.15 cells were seeded in duplicate into white, 96-well plates at 1.5×10^4 cells/well. The cells were treated with a three-fold serial dilution series of the compounds in DMSO. The final DMSO concentration in all wells was 1% and DMSO was used as no drug control.
The HBsAg chemiluminescence immunoassay (CLIA) kit (Autobio Diagnostics Co., Zhengzhou, China, Catalog number: CL0310-2) was used to measure the levels of secreted HBV antigens semi-quantitatively. For the detection 50 μL/well culture supernatant was used and HBsAg was quantified using HBsAg chemiluminescence immunoassay (CLIA) kit (Autobio Diagnostics Co., Zhengzhou, China, Catalog number: CL0310-2), 50 μL of the supernatant was transferred to the CLIA assay plate and 50 μL of enzyme conjugate reagent was added into each well. The plates were sealed and gently agitated for 1 hour at room temperature. The supernatant-enzyme-mixture was discarded and wells were washed 6 times with 300 μL of PBS. The residual liquid was removed by plating the CLIA plate […] on absorbent tissue paper. 25 μL of substrates A and B were added to each well. Luminance was measured using a luminometer (Mithras LB 940 Multimode Microplate Reader) after 10 minutes incubation. Dose-response curves were generated and the IC50 value was extrapolated by using the E-WorkBook Suite (ID Business Solutions Ltd., Guildford, UK). The IC50 was defined as the compound concentration (or conditioned media log dilution) at which HBsAg secretion was reduced by 50% compared to the no drug control.

The next assay deals with HBV DNA. In words: HBV DNA assay (real-time qPCR/TaqMan) in HepG2.2.15 cells. The conditions noted are these: Hepatitis B virus, 144 h, extracellular HBV DNA in supernatant, six days after initial administration, qPCR, read-out: IC50 (Anti HBV DNA production activity). Format: cell-based. The method, then:
as §1
The assay employs real-time qPCR (TaqMan) to directly measure extracellular HBV DNA copy number in the cell supernatant, HepG2.2.15 cells were plated in 96-well microtiter plates before treatment with complete medium (DMEM, Glutamax, 10% FBS, 1% Penicillin/Streptomycin, 250 μg/mL Genetycin, final DMSO concentration is 1%). Only the interior wells were utilized to reduce “edge effects” observed during cell culture, the exterior wells were filled with complete medium to help minimize sample evaporation. The HepG2.2.15 cells were treated 1 h later with various concentrations of a test compound in duplicate (top concentration used at 5 μM, 2 μM or 0.5 μM according to the HBsAg IC50 observed, with ⅓ successive dilutions (total of 10 dilutions). Six days following the initial administration of the test compound, the cell culture supernatant was collected; DNA extraction was performed by automated system (Magnapure) and then used in a real-time qPCR/TaqMan assay to determine HBV DNA copy numbers. Antiviral activity was calculated from the reduction in HBV DNA levels (IC50).
(In general: Real-time PCR tracks product formation cycle by cycle.)

The term IC50 denotes the concentration at which inhibition is half-maximal. For `Cc1nc(C(=O)N2Cc3nc(-c4ncccn4)ncc3C2C)sc1C` (stereo not drawn) [Example 10, (4,5-Dimethylthiazol-2-yl)-(5-methyl-2-pyrimidin-2-yl-5,7-dihydropyrrolo[3,4-d]pyrimidin-6-yl)methanone], the IC50 in the assay on HBsAg came to 282 nM; in the assay with HBV DNA, 67.6 nM.
For `CC1c2cnc(-c3ncccn3)nc2CN1C(=O)c1nn(C)c2ccccc12` (stereo not drawn) [Example 12, (1-Methylindazol-3-yl)-(5-methyl-2-pyrimidin-2-yl-5,7-dihydropyrrolo[3,4-d]pyrimidin-6-yl)methanone], in that order: 158 nM and 5.6 nM.
`Cc1c(C(=O)N2Cc3nc(-c4ncccn4)ncc3C2C)oc2ccccc12` (stereo not drawn) [Example 21, (3-Methylbenzofuran-2-yl)-(5-methyl-2-pyrimidin-2-yl-5,7-dihydropyrrolo[3,4-d]pyrimidin-6-yl)methanone]: the IC50 stood at 219 nM in the assay on HBsAg and 26.2 nM with HBV DNA.
`COc1cc(F)nc(N2Cc3nc(-c4ncccn4)ncc3C2C)c1` (stereo not drawn) [Example 30, 6-(6-Fluoro-4-methoxy-2-pyridyl)-5-methyl-2-pyrimidin-2-yl-5,7-dihydropyrrolo[3,4-d]pyrimidine]: the IC50 in the assay with HBsAg came to 50 nM; with HBV DNA it was 6.5 nM.
For the compound `COc1cc(F)nc(N2Cc3nc(-c4ccccn4)ncc3C2C)c1` (stereo not drawn) [Example 33, 6-(6-Fluoro-4-methoxy-2-pyridyl)-5-methyl-2-(2-pyridyl)-5,7-dihydropyrrolo[3,4-d]pyrimidine], the IC50 in the assay with HBsAg came out at 127 nM.
The same measure, in the same setting: the figure for `CC(=O)N1CCN(c2cc(F)cc(N3Cc4nc(-c5ncccn5)ncc4C3C)n2)CC1` (stereo not drawn) [Example 34, 1-[4-[4-Fluoro-6-(5-Methyl-2-Pyrimidin-2-Yl-5,7-Dihydropyrrolo[3,4-d]Pyrimidin-6-Yl)-2-Pyridyl]Piperazin-1-Yl]Ethanone] is 361 nM; for `CC1c2cnc(-c3ncccn3)nc2CN1c1cc(F)nc(N2CC3(COC3)C2)c1` (stereo not drawn) [Example 35, 6-[6-Fluoro-4-(5-Methyl-2-Pyrimidin-2-Yl-5,7-Dihydropyrrolo[3,4-d]Pyrimidin-6-Yl)-2-Pyridyl]-2-Oxa-6-Azaspiro[3.3]Heptane] it is 588 nM; for `CC1c2cnc(-c3ncccn3)nc2CN1c1cc(F)cc(N2CC3(COC3)C2)n1` (stereo not drawn) [Example 36, 6-[4-Fluoro-6-(5-Methyl-2-Pyrimidin-2-Yl-5,7-Dihydropyrrolo[3,4-d]Pyrimidin-6-Yl)-2-Pyridyl]-2-Oxa-6-Azaspiro[3.3]Heptane] it is 865 nM.
In the case of `CNc1cc(F)nc(N2Cc3nc(-c4ncccn4)ncc3C2C)c1` (stereo not drawn) [Example 37, 2-Fluoro-N-methyl-6-(5-methyl-2-pyrimidin-2-yl-5,7-dihydropyrrolo[3,4-d]pyrimidin-6-yl)pyridin-4-amine], the concentration for half-maximal inhibition (IC50) in the assay with HBsAg came to 55 nM.
Still for that read-out and setting: the figure for `CC1c2cnc(-c3ncccn3)nc2CN1c1cc(N(C)C)cc(F)n1` (stereo not drawn) [Example 38, 2-Fluoro-N,N-dimethyl-6-(5-methyl-2-pyrimidin-2-yl-5,7-dihydropyrrolo[3,4-d]pyrimidin-6-yl)pyridin-4-amine] is 15 nM; for `CC1c2cnc(-c3ncccn3)nc2CN1c1cc(N2CCC2)cc(F)n1` (stereo not drawn) [Example 39, 6-[4-(Azetidin-1-yl)-6-fluoro-2-pyridyl]-5-methyl-2-pyrimidin-2-yl-5,7-dihydropyrrolo[3,4-d]pyrimidine] it is 20 nM.
Same read-out and setting: the figure for `CC1c2cnc(-c3ncccn3)nc2CN1c1cc(N2CCCC2)cc(F)n1` (stereo not drawn) [Example 40, 6-(6-Fluoro-4-pyrrolidin-1-yl-2-pyridyl)-5-methyl-2-pyrimidin-2-yl-5,7-dihydropyrrolo[3,4-d]pyrimidine] is 16 nM; for `CC1c2cnc(-c3ncccn3)nc2CN1c1cc(N2CCCCC2)cc(F)n1` (stereo not drawn) [Example 41, 6-[6-Fluoro-4-(1-piperidyl)-2-pyridyl]-5-methyl-2-pyrimidin-2-yl-5,7-dihydropyrrolo[3,4-d]pyrimidine] it is 41 nM.
Same read-out and setting: the figure for `CC1c2cnc(-c3ncccn3)nc2CN1c1cc(N2CCOCC2)cc(F)n1` (stereo not drawn) [Example 42, 4-[2-Fluoro-6-(5-methyl-2-pyrimidin-2-yl-5,7-dihydropyrrolo[3,4-d]pyrimidin-6-yl)-4-pyridyl]morpholine] is 40 nM; for `CC1c2cnc(-c3ncccn3)nc2CN1c1cc(N2CCNCC2)cc(F)n1` (stereo not drawn) [Example 43, 6-(6-Fluoro-4-piperazin-1-yl-2-pyridyl)-5-methyl-2-pyrimidin-2-yl-5,7-dihydropyrrolo[3,4-d]pyrimidine] it is 4270 nM.
With `CC1c2cnc(-c3ncccn3)nc2CN1c1cc(N2CCN(S(C)(=O)=O)CC2)cc(F)n1` (stereo not drawn) [Example 44, 6-[6-Fluoro-4-(4-methylsulfonylpiperazin-1-yl)-2-pyridyl]-5-methyl-2-pyrimidin-2-yl-5,7-dihydropyrrolo[3,4-d]pyrimidine], the 50% inhibitory concentration (IC50) with HBsAg is 140 nM.
The same measure, in the same setting: the figure for `CC1c2cnc(-c3ncccn3)nc2CN1c1cc(N2CCNC(=O)C2)cc(F)n1` (stereo not drawn) [Example 45, 4-[2-Fluoro-6-(5-methyl-2-pyrimidin-2-yl-5,7-dihydropyrrolo[3,4-d]pyrimidin-6-yl)-4-pyridyl]piperazin-2-one] is 160 nM.

Values taken from patent US11225482B2, “Dihydropyrrolopyrimidines for the treatment and prophylaxis of hepatitis B virus infection” (Hoffmann-La Roche Inc., priority 2017, dated 2022).
